This note sets out measurements from patent US20170165317A1, “METHOD FOR MITIGATING OR ALLEVIATING SYNAPTIC AND COGNITIVE DEFICITS” (Trustees of Dartmouth College, priority 2013, published 2017).

Molecules are shown by their SMILES. Square brackets hold non-standard residues; d marks the D form. Peptide text beside a SMILES is read from it. * marks the point of attachment. ξ: configuration not given here. Myristoyl = CCCCCCCCCCCCCC(=O)*; dThr(3ξ) = CC(O)[C@@H](N)C(=O)O; Ile(3ξ) = CCC(C)[C@H](N)C(=O)O

The subject of one assay is APP/PS1 mice. Nature of the assay: Novel object location task after i.c.v. infusion by osmotic minipump. The assay is classed as in vivo, mouse. As to conditions: APP/PS1 mice, peptide 2 mM in pump, i.c.v. 3-4 weeks; p=0.027 vs vehicle-infused APP/PS1; recognition index similar to wild-type. As for the experimental part: APP/PS1 and wild-type mice were anesthetized with isofluorane, and i.c.v. delivery cannulas (brain alzet kit III) were implanted with a stereotaxic frame (KOPF Instruments) at the following coordinates according to the bregma: AP, −0.5 mm; ML, 1 mm; and DV, −2.2 mm. Osmotic minipumps (Alzet) were filled with artificial cerebrospinal fluid (aCSF) with or without PTEN inhibitor VO-OHpic (2.5 μM) and equilibrated in 0.9% NaCl at 37° C. for 48 hours. They were attached to the i.c.v. cannula tubing and subcutaneously implanted at the back. After 21 days, behavioral testing was started as described herein. One month after implantation, mice were sacrificed and the brains were sliced stained with Nissl to verify the location of the cannula. Animal manipulation and data analysis was carried out blind with respect to genotype and treatment.
Novel-Object Location. This assay was chosen because it is not intrinsically stressful. This factor, in mice, crucially affects cognitive performance in other spatial learning paradigms (e.g., Morris water maze). The memory tests were composed of three phases—“habituation”, “sample” and “choice” trials. Mice were first habituated individually to an empty open-field box (35×35×15 high cm) for 30 minutes. A sample trial (object exposure) consisted of placing a mouse into the test box which contained two identical objects. […] A recognition index was calculated by dividing the total time spent exploring the displaced object by the total time spent exploring both objects during the test session. […]
It was posited that if early Aβ-induced cognitive impairment results from a general synaptic bias toward LTD events (Selkoe (2002) Science 298:789-791), dampening this form of synaptic plasticity might prevent cognitive decay. Therefore, it was determined whether in vivo inhibition of PTEN, a lipid phosphatase that is involved in LTD (Jurado, et al. (2010) EMBO J. 29:2827-2840), would rescue cognitive deficits in APP/PS1 mice. […]

The subject of assay [1] is hippocampal CA3 and CA1 cells from acute slices. Nature of the assay: fEPSP input-output curve (basal synaptic transmission) in acute hippocampal slices exposed to protofibrillar Aβ42. As to conditions: for basal synaptic transmission in the absence of Aβ treatment: peptide alone; for Aβ-induced synaptic depression: slices preincubated with peptide 1 hour before synthetic protofibrillar Aβ. It counts as cell-based, mice. As for the experimental part: Mice were anesthetized with sodium pentothal (20 mg/kg ip) and decapitated. The brain was rapidly removed to ice-cold, oxygenated, dissection solution. Coronal slices (300 μm) were made with a vibratome (LEICA VT1200S) and slices were moved to a recovery chamber containing aCSF at room temperature for at least 1.5 hour before recording.
(§1) A concentric bipolar platinum-iridium stimulation electrode and a low-resistance glass recording microelectrode filled with aCSF (3-4 MΩ resistance) were placed in CA1 stratum radiatum to record the extracellular field excitatory postsynaptic potentials (fEPSPs). For each slice, an input-output curve was recorded to compare basal synaptic transmission at different conditions. This curve was also used to set the baseline fEPSP at ≈30% (for LTP experiments) or ≈50% (for LTD experiments) of maximal slope. Baseline stimulation was delivered every 15 seconds (0.01 ms duration pulses) for at least 20 minutes before beginning the experiment to ensure stability of the response. LTP was induced by using θ-burst stimulation (4 pulses at 100 Hz, with the bursts repeated at 5 Hz and each tetanus including three 10-burst trains separated by 15 seconds). LTD was induced using 900 pulses at 1 Hz. Responses were recorded for 1 hour after induction of LTP or LTD.
Dissection solution (employed for slicing) composition: 10 mM D-glucose, 4 mM KCl, 26 mM NaHCO3, 233.7 mM sucrose, 5 mM MgCl2, 1:1000 Phenol Red. Artificial CSF (employed for recovery and recording) composition: 119 mM NaCl, 2.5 mM KCl, 1 mM NaH2PO4, 11 mM glucose, 1.2 mM MgCl2, 2.5 mM CaCl2. Osmolarity was adjusted to […].
For the first approach, protofibrillar Aβ was prepared by promoting aggregation under high-salt conditions (258 μM Aβ42, room temperature incubation (Jan, et al. (2010) Nat. Protoc. 5:1186-1209). The kinetics of Aβ42 aggregation were followed by thioflavin T fluorescence and SDS-PAGE western blot analysis with the N-terminal anti-Aβ antibody 6E10. Also, the heterogeneous nature of these Aβ42 assemblies was evidenced by electron microscopy. Synaptic function was assessed by electrophysiological recordings of field excitatory postsynaptic potential (fEPSPs) between hippocampal CA3 and CA1 cells from acute slices prepared from 5-month-old mice. The results indicated a ≈60% decrease in the magnitude of synaptic transmission (input-output curve) when slices were incubated for 2 hours in aCSF containing pathogenic protofibrillar Aβ42 species (1 μM). This decrease in the basal synaptic transmission was prevented when Aβ was added to slices that were preincubated with the PTEN inhibitor (50 nM VO-OHpic) for 1 hour (VO-OHpic and Aβ were also present in the perfusion solution during electrophysiological recordings). VO-OHpic alone had no effect on basal synaptic transmission. […] The potency and specificity of this inhibitor have been documented previously (Rosivatz, et al. (2006) ACS Chem. Biol. 1:780-790).
The effect of these peptides on Aβ-treated neurons was subsequently tested.

The test system of another assay is acute mice slices. Nature of the assay: LTD of fEPSPs in acute hippocampal slices. The assay is classed as cell-based. As to conditions: peptide 10 μM, 1-2.5 hours incubation. The method, then: as §1
It was posited that the PTEN-PDZ peptide would saturate PDZ interaction sites of PTEN, consequently preventing anchoring of PTEN to PDZ proteins, and in this manner it would prevent LTD.

A further assay addresses T1, Aβ42 (Homo sapiens, UniProt P05067).
T1 construct: Lyophilized Aβ42 peptide was purchased from Keck Facility at Yale University; purchased Keck Facility at Yale University; host or cells: synthetic peptide
Kind of assay: Thioflavin-T fluorescence assay of Aβ42 aggregation. As to conditions: 50 nM VO-OHpic or 15 nM bPV(HOpic), 37° C. It counts as biochemical. As for the experimental part: Freshly prepared Aβ42 was prepared as described for protofibrillar Aβ42. The Thioflavin-T (ThT) assay was carried out at 37° C., within a dark chamber in a 96-well plate. Each well contained 100 ng/μL of Aβ42, 20 μM ThT and 50 nM VO-OHpic or 15 nM bPV(HOpic). Fluorescence (λex=450 nm; λem=485 nm) was followed over time in a FLUOSTAR OPTIMA (BMG LabTech) fluorescence spectrophotometer. Samples were run in triplicates. […] Thus, the observed rescue of basal synaptic transmission, LTP and cognition, with VO-OHpic was not likely due to an altered aggregation state of Aβ upon PTEN inhibition.

In assay [2] the test system is APPswe/lnd-expressing neurons. Nature of the assay: Paired whole-cell recording of AMPAR-mediated EPSCs in APPswe/lnd-expressing CA1 neurons of organotypic hippocampal slices. The assay is classed as cell-based, rat. As to conditions: 15 nM bPV(HOpic) or 50 nM VO-OHpic during expression. The method, then: The effect of recombinant protein expression on synaptic transmission was evaluated by simultaneous double whole-cell recordings from pairs of nearby infected and uninfected CA1 neurons, under voltage clamp, while stimulating presynaptic Schaffer collateral fibers (under this configuration, recombinant proteins are expressed exclusively in the postsynaptic neuron).
The different versions of APP (APPwt, APPswe/lnd APPMV) and EGFP were co-expressed using an internal ribosomal entry site (IRES) construct. The EGFP-tagged versions of PTEN have been described (Jurado, et al. (2010) EMBO J. 29:2827-2840). All constructs were prepared in pSinRep5 for expression using Sindbis virus. Recombinant proteins were expressed in hippocampal CA1 pyramidal neurons from organotypic slice cultures. Organotypic hippocampal slices were prepared from postnatal day 5-7 rats and cultured during 6-8 days.
The external solution (aCSF) contained 119 mM NaCl, 2.5 mM KCl, 1 mM NaH2PO4, 11 mM glucose, 26 mM NaHCO3, 4 mM MgCl2, 4 mM CaCl2, 100 μM picrotoxin and 2 μM 2-chloroadenosine, pH 7.4, and was gassed with 95% O2 and 5% CO2. […] Bipolar stimulating electrodes were placed over Schaffer collateral fibers between 250 and 300 μm from the CA1 recorded cells, and synaptic responses were evoked with single voltage pulses (200 μs, up to 30 V). […]

T1 sequence (P05067 672-713): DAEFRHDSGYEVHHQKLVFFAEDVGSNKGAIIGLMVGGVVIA

Take `CCCCCCCCCCCCCC(=O)N[C@@H](CCC(N)=O)C(=O)N[C@H](Cc1c[nH]cn1)C(=O)N[C@@H](CO)C(=O)N[C@H](CCC(N)=O)C(=O)N[C@H](C(=O)N[C@@H](C(=O)N[C@@H](CCCCN)C(=O)N[C@@H](C(=O)O)C(C)C)C(C)O)C(C)CC` (stereo partly shown) [PTEN-PDZ peptide, N-myristoyl-QHSQITKV] (Myristoyl-Q[dH]S[dQ][Ile(3ξ)][dThr(3ξ)]K[dV]-OH): the “spatial learning task (novel object location, recognition index)” value in the assay on APP/PS1 mice is recorded as “significant improvement”. Also, in assay [1], the “basal synaptic transmission in the absence of Aβ treatment” value was “neither peptide altered basal synaptic transmission” and the Aβ-induced synaptic depression entry is listed as “prevented synaptic depression”. Also, the Aβ-induced synaptic depression entry in assay [1] (listed as N-myristoyl-QHSQITKV) is given as “blocks Aβ-induced synaptic depression”. Further, the “LTD (fEPSP slope 50-60 minutes after induction)” value with acute mice slices is “completely blocked LTD”.

In the case of `O=C1C=C/C(=C(/[O-])O)N=C1.[K+].[O-][O-].[O-][O-].[O]=[V]` [bPV(HOpic)], the “Aβ42 aggregation (ThT fluorescence)” value on Aβ42 was “does not alter Aβ42 aggregation”. Besides, in assay [2], the “AMPAR-mediated EPSCs in APPswe/lnd-expressing neurons relative to uninfected cells” value is “no longer depressed”.

Regarding `CCCCCCCCCCCCCC(=O)N[C@@H](CO)C(=O)N[C@@H](C(=O)N[C@@H](Cc1c[nH]cn1)C(=O)N[C@@H](C(=O)N[C@H](C(=O)N[C@H](CCC(N)=O)C(=O)N[C@@H](CCCCN)C(=O)N[C@H](CCC(N)=O)C(=O)O)C(C)CC)C(C)O)C(C)C` (stereo partly shown) [scrambled peptide, N-myristoyl-SVHTIQKQ] (Myristoyl-S[dV]H[dThr(3ξ)][Ile(3ξ)][dQ]K[dQ]-OH), in assay [1], the “basal synaptic transmission in the absence of Aβ treatment” value is given as “neither peptide altered basal synaptic transmission” and the Aβ-induced synaptic depression result is listed as “did not”. In the assay on acute mice slices, the “LTD (fEPSP slope 50-60 minutes after induction)” value is listed as “did not have any effect”.
